Test results taken from ChEMBL document CHEMBL3046863, “Chemical composition and antifungal activity of essential oil of Chrysactinia mexicana gray” (J Agric Food Chem, 2005).
The source made the active and inactive calls. The calls are words filed in the database; no cut-off is given here.

Columns and labels:
Type in all cases: functional, organism-based
Aspergillus flavus [1] = assay: Antifungal activity against Aspergillus flavus assessed as inhibition of mycelial growth in dextrose sabouraud broth and Czapek agar at 0.3 mg/ml at 28 +/- 1 degC for 72 hr by dilution technique
Sclerotinia sclerotiorum = assay: Antifungal activity against Sclerotinia sclerotiorum assessed as inhibition of mycelial growth in dextrose sabouraud broth and Czapek agar at 28 +/- 1 degC for 72 hr by dilution technique
Aspergillus flavus [2] = assay: Antifungal activity against Aspergillus flavus assessed as inhibition of mycelial growth in dextrose sabouraud broth and Czapek agar at 0.2 mg/ml at 28 +/- 1 degC for 72 hr by dilution technique
Aspergillus flavus [3] = assay: Antifungal activity against Aspergillus flavus assessed as inhibition of mycelial growth in dextrose sabouraud broth and Czapek agar at 0.6 mg/ml at 28 +/- 1 degC for 72 hr by dilution technique
Aspergillus flavus [4] = assay: Antifungal activity against Aspergillus flavus assessed as inhibition of mycelial growth in dextrose sabouraud broth and Czapek agar at 0.1 mg/ml at 28 +/- 1 degC for 72 hr by dilution technique
Aspergillus flavus [5] = assay: Antifungal activity against Aspergillus flavus assessed as inhibition of mycelial growth in dextrose sabouraud broth and Czapek agar at 0.4 mg/ml at 28 +/- 1 degC for 72 hr by dilution technique
Aspergillus flavus [6] = assay: Antifungal activity against Aspergillus flavus assessed as inhibition of mycelial growth in dextrose sabouraud broth and Czapek agar at 0.5 mg/ml at 28 +/- 1 degC for 72 hr by dilution technique

| Structure (SMILES) | Activity (Aspergillus flavus [1]) | EC50 (Sclerotinia sclerotiorum) [uL/L] | Activity (Aspergillus flavus [2]) | Activity (Aspergillus flavus [3]) | Activity (Aspergillus flavus [4]) | Activity (Aspergillus flavus [5]) | Activity (Aspergillus flavus [6]) |
| --- | --- | --- | --- | --- | --- | --- | --- |
| C=CC(C)(CCC=C(C)C)OC(C)=O (centres undefined) [LINALYL ACETATE] | inactive | 569.62 | inactive | inactive | inactive | inactive | inactive |
| CC12CCC(CC1)C(C)(C)O2 | inactive | – | inactive | inactive | inactive | inactive | inactive |
| CC1=CC(=O)C(C(C)C)CC1 (centres undefined) | inactive | – | inactive | Active | inactive | inactive | inactive |
